pIC50: −log10 of the molar value.
Target: human LPA1 (Homo sapiens, UniProt Q92633)
Assay: In-vitro whole cell binding: competition with the ^18F tracer
Settings: CHO cells overexpressing human LPA1; ^18F tracer 3.8 nM; room temperature 1 hr; read-out: IC50, inhibition of binding of the ^18F tracer
Protocol: The effectiveness of compounds of the present invention as LPA1 inhibitors can be determined in an LPA1 binding assay as follows: Chinese hamster ovary cells overexpressing human LPA1 were maintained in F12 medium (Gibco #11765) supplemented with 10% fetal bovine serum and 1 mg/ml hygromycin (Invitrogen #10687-010). On day of assay, 150 cm^2 flasks of subconfluent cells were harvested with TripLE Express Dissociation reagent (Gibco #12605-010), counted, centrifuged, and resuspended in ice-cold Binding Assay Buffer (BAB: 50 mM HEPES pH 7.2, 100 mM NaCl, 2 mM EDTA) at 2×10^6 cells per ml. Cells were kept on ice until use. Test compound dilution plates were prepared by serially diluting test compounds (2 mM stock in 100% DMSO, […] dilutions) in DMSO, then diluting 1:50 in BAB to generate twelve half-log test concentrations at 4× final concentration. Binding assay were carried out in non-binding surface 96-well plates (Corning #3605) at room temperature for 1 hour. […] Individual filter discs were cut out of the filter plate and counted in a gamma counter. IC50 values were determined by fitting the data to a 4-parameter logistic equation (GraphPad Prism, San Diego Calif.).

human LPA1, sequence (Q92633 whole entry): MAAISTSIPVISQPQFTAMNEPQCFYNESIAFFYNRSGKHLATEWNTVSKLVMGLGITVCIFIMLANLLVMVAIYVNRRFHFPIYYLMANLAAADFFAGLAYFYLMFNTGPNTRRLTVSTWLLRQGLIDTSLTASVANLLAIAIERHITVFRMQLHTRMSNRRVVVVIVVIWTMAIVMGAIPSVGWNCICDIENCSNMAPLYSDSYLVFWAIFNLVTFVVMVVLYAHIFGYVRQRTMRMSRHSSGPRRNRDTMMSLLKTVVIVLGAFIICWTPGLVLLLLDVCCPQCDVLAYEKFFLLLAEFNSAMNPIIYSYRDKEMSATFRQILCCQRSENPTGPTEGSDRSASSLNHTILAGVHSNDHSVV

pIC50: 7.61
Compound: Cc1nc(-c2nnn(C)c2COC(=O)N(C)CCCCF)ccc1O[C@H]1CCC[C@H](C(=O)O)C1 [Example 14]

From US20210379210A1, “RADIOLIGANDS FOR IMAGING THE LPA1 RECEPTOR” (BRISTOL-MYERS SQUIBB COMPANY, priority 2018, published 2021)
